We go through twelve compounds from patent US8623863B2, “Disubstituted azepan orexin receptor antagonists” (Merck Sharp & Dohme Corp., priority 2008, dated 2014).

This assay concerns the target orexin-2 receptor (OX2R) (Homo sapiens (Human), UniProt O43614). The experiment in a line: radioligand binding assay, OX2R. The note with it: membranes prepared from CHO cells expressing the orexin-2 (OX2) receptor. On the procedure:
The utility of the compounds in accordance with the present invention as orexin receptor OX1R and/or OX2R antagonists may be readily determined without undue experimentation by methodology well known in the art, including the “FLIPR Ca^2+ Flux Assay” (Okumura et al., Biochem. Biophys. Res. Comm. 280:976-981, 2001). In a typical experiment the OX1 and OX2 receptor antagonistic activity of the compounds of the present invention was determined in accordance with the following experimental method. For intracellular calcium measurements, Chinese hamster ovary (CHO) cells expressing the rat OX1 receptor or the human OX2 receptor, are grown in Iscove's modified DMEM containing 2 mM L-glutamine, […], 1% hypoxanthine-thymidine supplement, 100 U/ml penicillin, 100 ug/ml streptomycin and 10% heat-inactivated fetal calf serum (FCS). The cells are seeded at 20,000 cells/well into Becton-Dickinson black 384-well clear bottom sterile plates coated with poly-D-lysine. All reagents were from GIBCO-Invitrogen Corp. The seeded plates are incubated overnight at 37° C. and 5% CO2. Ala-6,12 human orexin-A as the agonist is prepared as a 1 mM stock solution in 1% bovine serum albumin (BSA) and diluted in assay buffer (HBSS containing 20 mM HEPES, 0.1% BSA and 2.5 mM probenecid, pH7.4) for use in the assay at a final concentration of 70 pM. Test compounds are prepared as 10 mM stock solution in DMSO, then diluted in 384-well plates, first in DMSO, then assay buffer. On the day of the assay, cells are washed 3 times with 100 ul assay buffer and then incubated for 60 min (37° C., 5% CO2) in 60 ul assay buffer containing 1 uM Fluo-4AM ester, 0.02% pluronic acid, and 1% BSA. The dye loading solution is then aspirated and cells are washed 3 times with 100 ul assay buffer. 30 ul of that same buffer is left in each well. Within the Fluorescent Imaging Plate Reader (FLIPR, Molecular Devices), test compounds are added to the plate in a volume of 25 ul, incubated for 5 min and finally 25 ul of agonist is added. Fluorescence is measured for each well at 1 second intervals for 5 minutes and the height of each fluorescence peak is compared to the height of the fluorescence peak induced by 70 pM Ala-6,12 orexin-A with buffer in place of antagonist. For each antagonist, IC50 value (the concentration of compound needed to inhibit 50% of the agonist response) is determined. Alternatively, compound potency can be assessed by a radioligand binding assay (described in Bergman et. al. Bioorg. Med. Chem. Lett. 2008, 18, 1425-1430) in which the inhibition constant (Ki) is determined in membranes prepared from CHO cells expressing either the orexin-1 (OX1) or orexin-2 (OX2) receptor. The intrinsic orexin receptor antagonist activity of a compound which may be used in the present invention may be determined by these assays.

orexin-2 receptor (OX2R), sequence (O43614 whole entry): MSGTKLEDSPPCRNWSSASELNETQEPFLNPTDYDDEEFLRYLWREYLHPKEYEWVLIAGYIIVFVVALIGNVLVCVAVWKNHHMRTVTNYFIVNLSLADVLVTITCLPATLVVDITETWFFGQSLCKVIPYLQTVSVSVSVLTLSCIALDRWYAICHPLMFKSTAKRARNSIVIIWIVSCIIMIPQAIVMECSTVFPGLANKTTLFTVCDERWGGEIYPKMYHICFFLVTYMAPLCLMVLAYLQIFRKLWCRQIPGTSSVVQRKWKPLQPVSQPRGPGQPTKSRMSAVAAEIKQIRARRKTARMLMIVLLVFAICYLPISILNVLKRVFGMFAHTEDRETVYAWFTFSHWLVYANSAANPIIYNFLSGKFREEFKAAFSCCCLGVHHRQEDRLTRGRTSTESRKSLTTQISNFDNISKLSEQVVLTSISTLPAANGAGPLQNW

For the compound `CC1CCCC(COc2ccc(F)cn2)CN1C(=O)c1ccccc1-n1nccn1` (stereo not drawn) [2-11, 6-{[(5-fluoropyridin-2-yl)oxy]methyl}-2-methyl-1-[2-(2H-1,2,3-triazol-2-yl)benzoyl]azepane], the Ki (in general, a dissociation constant, usually derived from enzyme kinetics or from competition with a known ligand) turned out to be 28 nM. The result for `Cc1ccc(-c2ncccn2)c(C(=O)N2CC(COc3ccc(F)c(C)c3)CCCC2C)c1` (stereo not drawn) [3-3, 6-[(4-fluoro-3-methylphenoxy)methyl]-2-methyl-1-(5-methyl-2-pyrimidin-2-ylbenzoyl)azepane] reads 10 nM; that for `Cc1ccc(-n2nccn2)c(C(=O)N2CC(COc3ccc(F)c(C)c3)COCC2C)c1` (stereo not drawn) [4-8, 6-[(4-fluoro-3-methylphenoxy)methyl]-3-methyl-4-[5-methyl-2-(2H-1,2,3-triazol-2-yl)benzoyl]-1,4-oxazepane], 8.7 nM; that for `Cc1ccc(-c2ncccn2)c(C(=O)N2CC(COc3ccc(F)cn3)CCCC2C)c1` (stereo not drawn) [3-6, 6-{[(5-fluoropyridin-2-yl)oxy]methyl}-2-methyl-1-(5-methyl-2-pyrimidin-2-ylbenzoyl)azepane], 14 nM. Consider `Cc1ccc(-c2nccs2)c(C(=O)N2CC(COc3ccc(F)c(C)c3)CCCC2C)c1` (stereo not drawn) [3-2, 6-[(4-fluoro-3-methylphenoxy)methyl]-2-methyl-1-[5-methyl-2-(1,3-thiazol-2-yl)benzoyl]azepane], for which the Ki turned out to be 4.2 nM.

`Cc1ccc(-n2nccn2)c(C(=O)N2CC(COc3ccc(F)cn3)CCCC2C)c1` (stereo not drawn) [2-10, 6-{[(5-fluoropyridin-2-yl)oxy]methyl}-2-methyl-1-[5-methyl-2-(2H-1,2,3-triazol-2-yl)benzoyl]azepane]: the affinity corresponds to a Ki of 9.7 nM. The result for `Cc1cc(OCC2COCC(C)N(C(=O)c3ccccc3-n3nccn3)C2)ccc1F` (stereo not drawn) [4-9, 6-[(4-fluoro-3-methylphenoxy)methyl]-3-methyl-4-[2-(2H-1,2,3-triazol-2-yl)benzoyl]-1,4-oxazepane] reads 11 nM; that for `Cc1ccc(-c2ncco2)c(C(=O)N2CC(COc3ccc(F)cn3)CCCC2C)c1` (stereo not drawn) [3-4, 6-{[(5-fluoropyridin-2-yl)oxy]methyl}-2-methyl-1-[5-methyl-2-(1,3-oxazol-2-yl)benzoyl]azepane], 13 nM. The compound `Cc1cc(OCC2CCCC(C)N(C(=O)c3ccccc3-n3nccn3)C2)ccc1F` (stereo not drawn) [2-9, 6-[(4-fluoro-3-methylphenoxy)methyl]-2-methyl-1-[2-(2H-1,2,3-triazol-2-yl)benzoyl]azepane] yielded a Ki of 10 nM. Under `Cc1ccc(-c2nccs2)c(C(=O)N2CC(COc3ccc(F)cn3)CCCC2C)c1` (stereo not drawn) [3-5, 6-{[(5-fluoropyridin-2-yl)oxy]methyl}-2-methyl-1-[5-methyl-2-(1,3-thiazol-2-yl)benzoyl]azepane] stands 3.8 nM. Take `Cc1ccc(-n2nccn2)c(C(=O)N2CC(COc3ccc(F)c(C)c3)CCCC2C)c1` (stereo not drawn) [2-8, 6-[(4-fluoro-3-methylphenoxy)methyl]-2-methyl-1-[5-methyl-2-(2H-1,2,3-triazol-2-yl)benzoyl]azepane]: the Ki stood at 3.3 nM. Under `Cc1ccc(-n2nccn2)c(C(=O)N2CCCCC(COc3ccc(F)c(C)c3)C2)c1` (stereo not drawn) [1-8, 3-[(4-Fluoro-3-methylphenoxy)methyl]-1-[5-methyl-2-(2H-1,2,3-triazol-2-yl)benzoyl]azepane] stands 7.9 nM.
